Consider eleven molecules from patent US20260226026A1, “COMPOUND AS CTPS1 INHIBITOR” (Hangzhou Innogate Pharma Co., Ltd., priority 2023, published 2026).

One data set in a line: in vivo. Also noted: species or system SD rats. Particulars: male, SD, rat, po. The procedure:
Instrumentation: SCIEX Triple Quad 6500+ triple quadrupole liquid chromatography-mass spectrometry system (LC-MS/MS), operating software is Analyst 1.7.2 (Applied Biosystems, USA); ExionLC liquid chromatography system; Microsoft Excel was used for data calculation and processing. Pharmacokinetic parameters were calculated using the statistical moment method with WinNonlin 8.2 software. Key kinetic parameters included Tmax, T1/2, Cmax, AUC0-24 h etc. Column: Synergi 4 μm Fusion-RP 80 Å Luna C18 2 mm*50 mm, 4 μm; Column temperature: 40° C.; Mobile phase A: Water (0.1% formic acid); Mobile phase B: Acetonitrile; Flow rate: 0.8 mL/min; Gradient elution is adopted, the elution gradient is 0.10 min: 15% B; 1.60 min: 95% B; 1.90 min: 95% B; 1.91 min: 15% B; 2.20 min: 15% B. Injection volume: 1 μL.
Animals: 3 male SD rats with a weight range of 200-220 g were purchased and kept in the laboratory of the Experimental Animal Center for 3 days and then used. They were fasted for 12 hours predose and 4 hours after dosing. Drinking water was free during the test. After the rats were gavage, blood samples were taken according to the established time point.
Solvent: 0.4% ethanol+0.4% Tween80+99.2% (0.5% methylcellulose M450). Preparation of the solution for intragastric administration: Compounds were accurately weighed and added to the solvent. The mixture was then subjected to vortex mixing and sonication until a homogeneous suspension was achieved, thereby preparing medicinal solutions of the desired concentrations.
Compound samples: Typically, multiple structurally analogous compounds (with molecular weights differing by more than 2 units) were accurately weighed and administered together (cassette PK). This approach allows for the simultaneous screening of multiple compounds and comparison of their oral absorption rates. Single compound administration was also employed to study the pharmacokinetics of drug samples in rats.
After intragastric administration, blood was collected from the jugular vein at 0.25, 0.5, 1, 2, 4, 8, 10 and 24 hours. Transfer 20 μL of plasma sample (for blank samples and internal standard blank samples, add 20 μL of blank plasma) to a 1.5 mL centrifuge tube, add 200 μL of internal standard solution (50% methanol in acetonitrile (concentration 100 ng/mL)) (for Double blank samples, add 200 μL of 50% methanol in acetonitrile solution). Vortex the samples for 5 minutes, then centrifuge at 14000 rpm and 4° C. for 5 minutes. Transfer 80 μL and add to 80 μL of water, mix uniformly, and submit for LC-MS/MS analysis.
The compounds were accurately weighed to prepare different concentrations, and quantitative analysis on mass spectrometry was performed to establish a standard curve, and then the concentration of the above-mentioned compound in the plasma was tested to obtain its concentration at different time points. All measurement data were collected and processed by relevant software, and the statistical moment method was used to calculate the pharmacokinetic parameters (mainly including kinetic parameters Tmax, T1/2, Cmax, AUC0-24 h etc).

The next data set relates to Jurkat cells. The experiment in a line: Inhibition of Jurkat cell proliferation (CellTiter-Glo, 72 hours). The data set is classed as cell-based. Particulars: Homo sapiens; Jurkat cells, 72 hours, CellTiter-Glo; read-out: Jurkat (IC50). The procedure: Select Jurkat cells in good growth condition and digest them with trypsin. Add fresh culture medium, mix thoroughly, and centrifuge at 1000 rpm for 5 minutes. Seed the cells into a 96-well plate at a density of 10,000 cells per well, and incubate overnight in a 37° C. incubator. On the following day, take out of the culture plate and treat the cells with compounds prepared in a five-fold serial dilution. Return the plate to the 37° C. incubator and continue incubation for 72 hours.
After incubation, bring out the cell culture plate and equilibrate it to room temperature. Add 100 μL of CellTiter-Glo reagent to each well, shake in the dark for 2 minutes, and incubate for 10 minutes. Measure the luminescence using an Enspire plate reader. Calculate the inhibition rate using the following formula: Inhibition rate (%)=(1−(RLU_compound−RLU_blank)/(RLU_DMSO−RLU_blank))×100%. Plot the dose-response curve and calculate the IC50 value using XLFit.
(In general: Cellular ATP, detected with luciferase, serves as a proxy for viable cell number.)

A further data set addresses T1, hCTPS1 enzyme (Homo sapiens, UniProt P17812).
T1 sequence (P17812 1-591): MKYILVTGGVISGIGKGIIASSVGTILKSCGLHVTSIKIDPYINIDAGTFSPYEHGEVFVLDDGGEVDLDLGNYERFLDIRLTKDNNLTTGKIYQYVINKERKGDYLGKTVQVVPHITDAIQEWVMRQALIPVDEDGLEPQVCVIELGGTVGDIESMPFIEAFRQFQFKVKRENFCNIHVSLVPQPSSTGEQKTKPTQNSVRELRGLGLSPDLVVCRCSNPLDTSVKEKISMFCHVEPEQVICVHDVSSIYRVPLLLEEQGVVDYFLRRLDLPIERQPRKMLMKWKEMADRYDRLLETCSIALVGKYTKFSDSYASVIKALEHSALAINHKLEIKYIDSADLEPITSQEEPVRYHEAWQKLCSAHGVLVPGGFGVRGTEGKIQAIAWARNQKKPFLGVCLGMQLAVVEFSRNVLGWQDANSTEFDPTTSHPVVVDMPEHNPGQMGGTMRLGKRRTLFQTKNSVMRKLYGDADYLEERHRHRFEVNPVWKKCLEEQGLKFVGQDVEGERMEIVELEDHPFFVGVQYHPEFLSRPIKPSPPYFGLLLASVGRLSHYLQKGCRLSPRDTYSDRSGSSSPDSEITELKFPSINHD
The experiment in a line: Inhibition of CTPS1 enzyme activity (ADP-Glo method). The data set is classed as biochemical. The following applies: hCTPS1, 90 min reaction at 25° C. The method, then: The enzyme activity of CTPS1 was tested using the ADP-Glo method. Compounds were serially diluted in DMSO with 3-fold gradients across ten concentrations. Transfer 0.1 μL of diluted compound to a 384-well plate, centrifuge at 1000 rpm for 1 min. Add 2.5 μL of hCTPS1 enzyme working solution, centrifuge at 1000 rpm for 1 min, and incubate at 25° C. for 10 min. Add 2.5 μL of ATP & UTP solution and incubate at 25° C. for 10 min. Add 5 μL of substrate solution to initiate the reaction and incubate at 25° C. for 90 min. Add 10 μL of ADP-Glo solution to the 384-well plate, centrifuge at 1000 rpm for 1 min, incubate at 25° C. for 40 min, add 20 μL of detection solution, centrifuge at 1000 rpm for 1 min, and incubate at 25° C. for 60 min. […] were read using a BMG microplate reader. Inhibition rate (%) was calculated as follows: Inhibition rate (%)=[(DMSO control well signal−Compound well signal)/(DMSO control well signal−Blank control well signal)]×100%. IC50 values for compounds were analyzed by nonlinear regression in XLFit 5.5.0 software using the formula: Y=Bottom+(Top−Bottom)/(1+10^((LogIC50−X)*HillSlope)) where Y is the inhibition rate and X is the log value of compound concentration.
On the technique in general: In ADP-Glo the light output rises with the ADP produced.

With `CCOc1cncc(-c2ccc(NC(=O)C3(c4ccnc(NS(=O)(=O)C5CC5)n4)CCC(=CC4CCOCC4)CC3)nc2)n1` (stereo not drawn) [Compound 32], in the data set “in vivo” (3 mg/kg), the AUC(0-t) – broadly, exposure summed from dosing to a finite time, without extrapolation to infinity – is 15700 ng·h/mL; the Cmax (commonly the highest concentration seen after dosing) was determined as 4020 ng/mL; the Tmax – broadly, the time from dosing to the highest level – turned out to be 0.83 h; the half-life – broadly, the time needed for the level to fall by half in the phase considered – is 1.34 h. Moreover, the IC50 (usually the point on the concentration scale where inhibition reaches its midpoint) in the data set with Jurkat cells is less than 15 nM. The same molecule returned an IC50 against hCTPS1 enzyme of less than 25 nM.
Turning to `CCOc1cncc(-c2ccc(NC(=O)C3(c4ccnc(NS(=O)(=O)C5CC5)n4)CCC(=CC4COC4)CC3)nc2)n1` (stereo not drawn) [Compound 36], in the data set “in vivo” (3 mg/kg), the AUC(0-t) amounted to 6250 ng·h/mL, the Cmax was 3770 ng/mL, the Tmax turned out to be 0.25 h and the half-life was 2.8 h. For the same molecule, in the data set on Jurkat cells, the half-maximal inhibitory concentration (IC50) was less than 5 nM. The same molecule registered an IC50 at hCTPS1 enzyme of less than 25 nM.
Consider `CCOc1cncc(-c2ccc(NC(=O)C3(c4ccnc(NS(=O)(=O)C5CC5)n4)CCC(=C(F)CO)CC3)nc2)n1` (stereo not drawn) [Compound 39], for which, in the data set “in vivo” (2 mg/kg), the AUC(0-t) was determined as 1470 ng·h/mL, the maximum concentration (Cmax) stood at 837 ng/mL, the time to peak (Tmax) turned out to be 1.33 h and the half-life is 2.48 h. The IC50 in the data set with Jurkat cells was less than 15 nM. For the same molecule, the IC50 against hCTPS1 enzyme is less than 25 nM.
In the case of `CCOc1cncc(-c2ccc(NC(=O)C3(c4ccnc(NS(=O)(=O)C5CC5)n4)CCC(=CCCO)CC3)nc2)n1` (stereo not drawn) [Compound 44], in “in vivo” (2 mg/kg), the AUC(0-t) came out at 33 ng·h/mL, the Cmax was 10.5 ng/mL, the Tmax stood at 1.17 h and the half-life was 1.77 h. The IC50 in the data set on Jurkat cells was less than 15 nM. At hCTPS1 enzyme, this molecule displayed an IC50 of less than 25 nM.
For `CCOc1cncc(-c2ccc(NC(=O)C3(c4ccnc(NS(=O)(=O)C5CC5)n4)CCC(=C(C)CO)CC3)nc2)n1` (stereo not drawn) [Compound 47], in the data set “in vivo” (2 mg/kg), the AUC(0-t) came to 1410 ng·h/mL, the Cmax was found to be 1820 ng/mL, the Tmax came to 0.25 h and the half-life was 2.01 h. Also, the IC50 with Jurkat cells is less than 15 nM. Besides, on hCTPS1 enzyme, the IC50 is less than 25 nM.
Take `CCOc1cncc(-c2ccc(NC(=O)C3(c4ccnc(NS(=O)(=O)C5CC5)n4)CCC(=C(F)C4COC4)CC3)nc2)n1` (stereo not drawn) [Compound 50]: in “in vivo” (2 mg/kg), the AUC(0-t) was 2160 ng·h/mL, the Cmax was found to be 1020 ng/mL, the Tmax stood at 0.25 h and the half-life was 1.13 h. Further, the IC50 in the data set with Jurkat cells is less than 15 nM. Also, on hCTPS1 enzyme, the IC50 was less than 25 nM.
Take `CCOc1cncc(-c2ccc(NC(=O)C3(c4ccnc(NS(=O)(=O)C5CC5)n4)CCC(=C(F)C4CCOCC4)CC3)nc2)n1` (stereo not drawn) [Compound 52]: in the data set “in vivo” (1.5 mg/kg), the AUC(0-t) is 7640 ng·h/mL, the Cmax was 1210 ng/mL, the Tmax was 2 h and the half-life is 2.01 h. Moreover, the IC50 with Jurkat cells is less than 15 nM. The IC50 on hCTPS1 enzyme is less than 25 nM.
With `CCOc1cncc(-c2ccc(NC(=O)C3(c4ccnc(NS(=O)(=O)C5CC5)n4)CCC(=CCC(C)(C)O)CC3)nc2)n1` (stereo not drawn) [Compound 58], in the data set “in vivo” (3 mg/kg), the AUC(0-t) worked out at 25100 ng·h/mL, the Cmax stood at 4540 ng/mL, the Tmax turned out to be 2.17 h and the half-life is 2.53 h. In addition, the IC50 in the data set on Jurkat cells is less than 15 nM. Also, the IC50 against hCTPS1 enzyme is less than 25 nM.
For the molecule `CCOc1cncc(-c2ccc(NC(=O)C3(c4ccnc(NS(=O)(=O)C5CC5)n4)CCC(=CCC4COC4)CC3)nc2)n1` (stereo not drawn) [Compound 63], in “in vivo” (3 mg/kg), the AUC(0-t) is 37600 ng·h/mL, the Cmax came out at 4820 ng/mL, the Tmax was found to be 2.33 h and the half-life is 3.03 h. The IC50 in the data set on Jurkat cells was less than 15 nM. At hCTPS1 enzyme, this molecule registered a 50% inhibitory concentration (IC50) of less than 25 nM.
`CCOc1cncc(-c2ccc(NC(=O)C3(c4cncc(NS(=O)(=O)C5CC5)n4)CCC(=C(F)F)CC3)nc2)n1` (stereo not drawn) [Compound 68]: in the data set “in vivo” (3 mg/kg), the AUC(0-t) was found to be 40800 ng·h/mL, the Cmax was 6810 ng/mL, the Tmax came out at 2.17 h and the half-life is 1.83 h. Also, the IC50 with Jurkat cells was less than 15 nM. On hCTPS1 enzyme, this molecule yielded a half-maximal inhibitory concentration (IC50) of less than 25 nM.
Turning to `CCOc1cncc(-c2ccc(NC(=O)C3(c4ccnc(NS(=O)(=O)C5CC5)n4)CCC(=C(F)CC4COC4)CC3)nc2)n1` (stereo not drawn) [Compound 69], in the data set “in vivo” (2 mg/kg), the exposure AUC(0-t) stood at 11300 ng·h/mL, the Cmax was 2330 ng/mL, the Tmax turned out to be 1.83 h and the half-life was 1.89 h. In addition, the IC50 in the data set with Jurkat cells is less than 15 nM. For the same molecule, the IC50 on hCTPS1 enzyme was less than 50 nM.
